# Test results as given in patent publication US20250270209A1 (INTERLINE THERAPEUTICS, INC., priority 2022, published 2025).
# pIC50: −log10 of the molar value.
# Assays:
# [1] = molecular target: T1, wild type LRRK2 overexpressed in recombinant HEK-293T cells (Homo sapiens, UniProt Q5S007); assay: pS935 LRRK2 Cell Assay (HTRF, phospho-LRRK2 Ser935); format: cell-based; details: LRRK2 Inhibition, Table 8, 2 hours compound incubation
# T1 construct: host or cells: HEK293T (transient transfection with pCMV-LRRK2 WT plasmid)
# Procedure, shortened: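 Phospho-Ser935 LRRK2 measured by two-antibody HTRF (Eu-cryptate donor, d2 acceptor; 665/615 nm ratio) after overnight detection at 23° C. Before lysis, transiently LRRK2-transfected HEK-293T cells were exposed 2 h at 37° C to a 9-point, 3-fold series from 10 μM, with DMSO at 0.2%.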
# LRRK2 wild type enzyme = LRRK2 wild type enzyme (Homo sapiens, UniProt Q5S007); assay: Biochemical Assay: LRRK2 TR-FRET (LanthaScreen) kinase assay with LRRKtide substrate; details: LRRK2 Inhibition, Table 8
# Procedure, shortened: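 TR-FRET detection (Tb-labelled phospho-LRRKtide antibody, EDTA stop, 30 min) followed a 120 min, 23 °C reaction of 3 nM wild-type human LRRK2 with LRRKtide (400 nM) and ATP (25 μM) in Tris pH 8.0. Compounds: 11-point 3-fold series from 10 μM, 15 min enzyme preincubation.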
# Sequence of LRRK2 wild type enzyme (Q5S007 whole entry): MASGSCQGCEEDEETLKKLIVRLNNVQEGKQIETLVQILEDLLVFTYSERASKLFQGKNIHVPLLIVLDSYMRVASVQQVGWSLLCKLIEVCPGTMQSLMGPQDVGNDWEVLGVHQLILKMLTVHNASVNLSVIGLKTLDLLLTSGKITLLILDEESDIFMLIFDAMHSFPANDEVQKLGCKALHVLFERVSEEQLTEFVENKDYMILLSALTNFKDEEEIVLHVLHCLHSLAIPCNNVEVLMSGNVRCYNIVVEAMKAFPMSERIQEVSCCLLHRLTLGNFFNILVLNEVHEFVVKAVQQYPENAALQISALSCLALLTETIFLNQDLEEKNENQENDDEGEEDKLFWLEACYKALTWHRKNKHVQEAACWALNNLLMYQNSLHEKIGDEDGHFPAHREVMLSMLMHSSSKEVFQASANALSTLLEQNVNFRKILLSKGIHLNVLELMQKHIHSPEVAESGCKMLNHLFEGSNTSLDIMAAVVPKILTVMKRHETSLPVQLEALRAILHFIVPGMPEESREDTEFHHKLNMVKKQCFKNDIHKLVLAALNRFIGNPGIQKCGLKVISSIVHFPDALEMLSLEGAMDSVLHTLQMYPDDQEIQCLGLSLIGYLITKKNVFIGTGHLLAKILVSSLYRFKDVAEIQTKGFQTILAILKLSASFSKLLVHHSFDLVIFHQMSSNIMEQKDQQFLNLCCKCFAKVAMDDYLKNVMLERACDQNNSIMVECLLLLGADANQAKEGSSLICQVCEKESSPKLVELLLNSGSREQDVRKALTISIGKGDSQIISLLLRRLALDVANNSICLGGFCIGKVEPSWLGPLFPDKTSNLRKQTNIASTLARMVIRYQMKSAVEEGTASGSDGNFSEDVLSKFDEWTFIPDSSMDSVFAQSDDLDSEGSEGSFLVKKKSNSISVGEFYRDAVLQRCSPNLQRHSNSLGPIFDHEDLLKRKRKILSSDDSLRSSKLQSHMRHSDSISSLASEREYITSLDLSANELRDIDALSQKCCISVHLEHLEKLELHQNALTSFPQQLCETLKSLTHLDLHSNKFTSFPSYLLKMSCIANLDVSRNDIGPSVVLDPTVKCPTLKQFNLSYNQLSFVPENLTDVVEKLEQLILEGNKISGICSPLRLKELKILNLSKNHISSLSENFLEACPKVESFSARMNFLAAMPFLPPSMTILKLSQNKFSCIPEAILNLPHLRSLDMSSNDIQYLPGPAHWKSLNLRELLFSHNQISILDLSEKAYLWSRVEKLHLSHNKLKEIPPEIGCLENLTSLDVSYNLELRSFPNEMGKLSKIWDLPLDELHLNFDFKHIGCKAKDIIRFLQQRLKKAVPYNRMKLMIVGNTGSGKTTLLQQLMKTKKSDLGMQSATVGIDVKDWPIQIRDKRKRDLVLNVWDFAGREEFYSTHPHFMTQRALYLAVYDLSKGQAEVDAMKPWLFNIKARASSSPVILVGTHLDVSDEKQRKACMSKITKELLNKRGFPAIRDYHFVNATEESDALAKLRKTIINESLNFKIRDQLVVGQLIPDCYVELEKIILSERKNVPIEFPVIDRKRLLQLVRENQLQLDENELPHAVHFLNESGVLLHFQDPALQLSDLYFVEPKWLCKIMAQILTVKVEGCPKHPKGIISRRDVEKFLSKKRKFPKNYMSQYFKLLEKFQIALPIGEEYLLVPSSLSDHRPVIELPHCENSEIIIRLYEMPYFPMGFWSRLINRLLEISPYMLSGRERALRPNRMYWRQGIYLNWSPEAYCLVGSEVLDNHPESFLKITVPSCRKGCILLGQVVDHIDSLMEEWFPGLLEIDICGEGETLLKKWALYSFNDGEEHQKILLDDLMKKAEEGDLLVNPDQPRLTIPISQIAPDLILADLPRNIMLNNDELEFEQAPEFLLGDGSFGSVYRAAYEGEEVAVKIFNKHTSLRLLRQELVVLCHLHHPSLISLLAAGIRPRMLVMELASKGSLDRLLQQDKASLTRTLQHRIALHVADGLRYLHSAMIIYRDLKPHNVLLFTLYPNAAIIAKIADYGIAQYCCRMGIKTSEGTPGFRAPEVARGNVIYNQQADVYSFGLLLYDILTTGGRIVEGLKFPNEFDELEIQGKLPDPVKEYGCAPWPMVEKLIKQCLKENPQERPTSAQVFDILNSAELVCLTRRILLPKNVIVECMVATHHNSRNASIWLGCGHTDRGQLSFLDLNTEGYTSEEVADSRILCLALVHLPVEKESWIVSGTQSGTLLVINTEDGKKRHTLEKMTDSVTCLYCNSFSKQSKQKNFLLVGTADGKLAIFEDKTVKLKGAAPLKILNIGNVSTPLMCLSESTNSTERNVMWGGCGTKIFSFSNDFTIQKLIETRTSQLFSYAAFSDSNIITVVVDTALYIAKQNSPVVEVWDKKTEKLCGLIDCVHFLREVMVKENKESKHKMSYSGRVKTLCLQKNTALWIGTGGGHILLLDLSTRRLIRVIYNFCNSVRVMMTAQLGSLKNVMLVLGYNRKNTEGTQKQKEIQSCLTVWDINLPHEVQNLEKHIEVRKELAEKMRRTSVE
# T1 sequence (Q5S007 whole entry): as above
Compound,pIC50 [1],pIC50 (LRRK2 wild type enzyme)
"Cc1cc(CNC(=O)Cc2nc3cnc4ccc(C#N)cc4c3n2[C@@H]2CCO[C@H](C)C2)no1 [Compound 176, 2-{8-cyano-1-[(2R,4R)-2-methyloxan-4-yl]-1H-imidazo[4,5-c]quinolin-2-yl}-N-[(5-methyl-1,2-oxazol-3-yl)methyl]acetamide]",8.25,9.49
"C[C@@H]1C[C@H](n2c(CC(=O)NCC3COC3)nc3cnc4ccc(C#N)cc4c32)CCO1 [Compound 177, 2-{8-cyano-1-[(2R,4R)-2-methyloxan-4-yl]-1H-imidazo[4,5-c]quinolin-2-yl}-N-[(oxetan-3-yl)methyl]acetamide]",6.91,9.28
"C[C@@H]1C[C@H](n2c(CC(=O)Nc3ncccn3)nc3cnc4ccc(C#N)cc4c32)CCO1 [Compound 178, 2-{8-cyano-1-[(2R,4R)-2-methyloxan-4-yl]-1H-imidazo[4,5-c]quinolin-2-yl}-N-(pyrimidin-2-yl)acetamide]",8.41,9.47
"Cc1oncc1CNC(=O)Cc1nc2cnc3ccc(C#N)cc3c2n1[C@@H]1CCO[C@H](C)C1 [Compound 179, 2-(8-cyano-1-((2R,4R)-2-methyltetrahydro-2H-pyran-4-yl)-1H-imidazo[4,5-c]quinolin-2-yl)-N-((5-methylisoxazol-4-yl)methyl)acetamide]",7.77,9.47
"C[C@@H]1C[C@H](n2c(CC(=O)Nc3cnoc3)nc3cnc4ccc(C#N)cc4c32)CCO1 [Compound 180, 2-{8-cyano-1-[(2R,4R)-2-methyloxan-4-yl]-1H-imidazo[4,5-c]quinolin-2-yl}-N-(1,2-oxazol-4-yl)acetamide]",7.67,9.36
"C[C@@H]1C[C@H](n2c(CC(=O)NCCCO)nc3cnc4ccc(C#N)cc4c32)CCO1 [Compound 181, 2-{8-cyano-1-[(2R,4R)-2-methyloxan-4-yl]-1H-imidazo[4,5-c]quinolin-2-yl}-N-(3-hydroxypropyl)acetamide]",6.42,9.24
"C[C@@H]1C[C@H](n2c(CC(=O)NC3CC3)nc3cnc4ccc(Cl)cc4c32)CCO1 [Compound 183, 2-{8-chloro-1-[(2R,4R)-2-methyloxan-4-yl]-1H-imidazo[4,5-c]quinolin-2-yl}-N-cyclopropylacetamide]",7.95,9.59
"C[C@@H]1C[C@H](n2c(CC(=O)Nc3ccon3)nc3cnc4ccc(C#N)cc4c32)CCO1 [Compound 184, 2-{8-cyano-1-[(2R,4R)-2-methyloxan-4-yl]-1H-imidazo[4,5-c]quinolin-2-yl}-N-(1,2-oxazol-3-yl)acetamide]",8.33,9.52
"C[C@@H]1C[C@H](n2c(CC(=O)NC(C)(C)c3ccccn3)nc3cnc4ccc(C#N)cc4c32)CCO1 [Compound 185, 2-{8-cyano-1-[(2R,4R)-2-methyloxan-4-yl]-1H-imidazo[4,5-c]quinolin-2-yl}-N-[2-(pyridin-2-yl)propan-2-yl]acetamide]",8.59,9.38
"C[C@@H]1C[C@H](n2c(CC(=O)NCC(F)(F)F)nc3cnc4ccc(C#N)cc4c32)CCO1 [Compound 186, 2-{8-cyano-1-[(2R,4R)-2-methyloxan-4-yl]-1H-imidazo[4,5-c]quinolin-2-yl}-N-(2,2,2-trifluoroethyl)acetamide]",7.36,9.25
"Cc1nn(C)c(C)c1NC(=O)Cc1nc2cnc3ccc(C#N)cc3c2n1[C@@H]1CCO[C@H](C)C1 [Compound 187, 2-{8-cyano-1-[(2R,4R)-2-methyloxan-4-yl]-1H-imidazo[4,5-c]quinolin-2-yl}-N-(1,3,5-trimethyl-1H-pyrazol-4-yl)acetamide]",8.02,9.62
"C[C@@H]1C[C@H](n2c(CC(=O)Nc3ccn(C)n3)nc3cnc4ccc(C#N)cc4c32)CCO1 [Compound 188, 2-{8-cyano-1-[(2R,4R)-2-methyloxan-4-yl]-1H-imidazo[4,5-c]quinolin-2-yl}-N-(1-methyl-1H-pyrazol-3-yl)acetamide]",8.12,9.49
"C[C@@H]1C[C@H](n2c(CC(=O)N[C@@H](C)c3ccccn3)nc3cnc4ccc(C#N)cc4c32)CCO1 [Compound 189, 2-{8-cyano-1-[(2R,4R)-2-methyloxan-4-yl]-1H-imidazo[4,5-c]quinolin-2-yl}-N-[(1S)-1-(pyridin-2-yl)ethyl]acetamide]",8.79,9.48
"C[C@@H]1C[C@H](n2c(CC(=O)N[C@H](C)c3ccccn3)nc3cnc4ccc(C#N)cc4c32)CCO1 [Compound 190, 2-{8-cyano-1-[(2R,4R)-2-methyloxan-4-yl]-1H-imidazo[4,5-c]quinolin-2-yl}-N-[(1R)-1-(pyridin-2-yl)ethyl]acetamide]",7.73,9.16
"Cc1ccc2ncc3nc(CC(=O)NC4CC4)n([C@@H]4CCO[C@H](C)C4)c3c2c1 [Compound 191, N-cyclopropyl-2-{8-methyl-1-[(2R,4R)-2-methyloxan-4-yl]-1H-imidazo[4,5-c]quinolin-2-yl}acetamide]",7.18,9.02
"C[C@@H]1C[C@H](n2c(CC(=O)NC3CCOCC3)nc3cnc4ccc(Cl)cc4c32)CCO1 [Compound 192, 2-{8-chloro-1-[(2R,4R)-2-methyloxan-4-yl]-1H-imidazo[4,5-c]quinolin-2-yl}-N-(oxan-4-yl)acetamide]",7.88,9.41
"C[C@@H]1C[C@H](n2c(CC(=O)Nc3cnn(C)c3)nc3cnc4ccc(Cl)cc4c32)CCO1 [Compound 193, 2-{8-chloro-1-[(2R,4R)-2-methyloxan-4-yl]-1H-imidazo[4,5-c]quinolin-2-yl}-N-(1-methyl-1H-pyrazol-4-yl)acetamide]",8.25,9.58
"Cc1noc(C)c1NC(=O)Cc1nc2cnc3ccc(C#N)cc3c2n1[C@@H]1CCO[C@H](C)C1 [Compound 201, N-(3,5-dimethyl-4-isoxazolyl){3-[(2R,4R)-2-methyltetrahydro-2H-pyran-4-yl]-12-cyano-3,5,8-triazatricyclo[7.4.0.0^2,6]trideca-1,4,6,8,10,12-hexaen-4-yl}acetamide]",7.94,9.42
"COc1nccc(F)c1NC(=O)Cc1nc2cnc3ccc(C#N)cc3c2n1[C@@H]1CCO[C@H](C)C1 [Compound 202, N-(4-fluoro-2-methoxy-3-pyridyl){3-[(2R,4R)-2-methyltetrahydro-2H-pyran-4-yl]-12-cyano-3,5,8-triazatricyclo[7.4.0.0^2,6]trideca-1,4,6,8,10,12-hexaen-4-yl}acetamide]",8.07,9.44
"COc1nc(C)nc(C)c1NC(=O)Cc1nc2cnc3ccc(C#N)cc3c2n1[C@@H]1CCO[C@H](C)C1 [Compound 203, N-(4-methoxy-2,6-dimethyl-5-pyrimidinyl){3-[(2R,4R)-2-methyltetrahydro-2H-pyran-4-yl]-12-cyano-3,5,8-triazatricyclo[7.4.0.0^2,6]trideca-1,4,6,8,10,12-hexaen-4-yl}acetamide]",6.87,9.47
"COc1ncnc(C)c1NC(=O)Cc1nc2cnc3ccc(C#N)cc3c2n1[C@@H]1CCO[C@H](C)C1 [Compound 204, N-(4-methoxy-6-methyl-5-pyrimidinyl){3-[(2R,4R)-2-methyltetrahydro-2H-pyran-4-yl]-12-cyano-3,5,8-triazatricyclo[7.4.0.0^2,6]trideca-1,4,6,8,10,12-hexaen-4-yl}acetamide]",8.18,9.33
"Cc1cc(F)ncc1NC(=O)Cc1nc2cnc3ccc(C#N)cc3c2n1[C@@H]1CCO[C@H](C)C1 [Compound 205, N-(6-fluoro-4-methyl-3-pyridyl){3-[(2R,4R)-2-methyltetrahydro-2H-pyran-4-yl]-12-cyano-3,5,8-triazatricyclo[7.4.0.0^2,6]trideca-1,4,6,8,10,12-hexaen-4-yl}acetamide]",7.95,9.41
"C[C@@H]1C[C@H](n2c(CC(=O)Nc3cnn(C)c(=O)c3)nc3cnc4ccc(Cl)cc4c32)CCO1 [Compound 206, N-(1-methyl-6-oxo-1,6-dihydro-4-pyridazinyl){3-[(2R,4R)-2-methyltetrahydro-2H-pyran-4-yl]-12-chloro-3,5,8-triazatricyclo[7.4.0.0^2,6]trideca-1,4,6,8,10,12-hexaen-4-yl}acetamide]",8.08,9.32
"Cc1ncnc(C)c1NC(=O)Cc1nc2cnc3ccc(Cl)cc3c2n1[C@@H]1CCO[C@H](C)C1 [Compound 207, N-(4,6-dimethyl-5-pyrimidinyl){3-[(2R,4R)-2-methyltetrahydro-2H-pyran-4-yl]-12-chloro-3,5,8-triazatricyclo[7.4.0.0^2,6]trideca-1,4,6,8,10,12-hexaen-4-yl}acetamide]",8.12,9.48
"C[C@@H]1C[C@H](n2c(CC(=O)Nc3cnccc3O)nc3cnc4ccc(C#N)cc4c32)CCO1 [Compound 208, N-(4-hydroxy-3-pyridyl){3-[(2R,4R)-2-methyltetrahydro-2H-pyran-4-yl]-12-cyano-3,5,8-triazatricyclo[7.4.0.0^2,6]trideca-1,4,6,8,10,12-hexaen-4-yl}acetamide]",5.31,9.24
"Cc1oncc1NC(=O)Cc1nc2cnc3ccc(C#N)cc3c2n1[C@@H]1CCO[C@H](C)C1 [Compound 209, N-(5-methyl-4-isoxazolyl){3-[(2R,4R)-2-methyltetrahydro-2H-pyran-4-yl]-12-cyano-3,5,8-triazatricyclo[7.4.0.0^2,6]trideca-1,4,6,8,10,12-hexaen-4-yl}acetamide]",7.88,9.37
